“Also recorded” adds a separate entry of the source.
Key:
[1] = test system: healthy subjects; experiment: Acute subjective effects on the Visual Analog Scale (VAS); format: in vivo, human
Method: (§1) Study design: The present study compares the acute subjective, physiological and endocrine effects of S-MDMA (125 mg), R-MDMA (125 and 250 mg), MDMA (125 mg) using a placebo-controlled double-blind 5-period cross-over design in 24 healthy subjects. Conditions are 1.) R-MDMA 125 mg, 2). R-MDMA 250 mg, 3) S-MDMA 125 mg, 4) MDMA 125 mg, 5) placebo. Treatment order is counterbalanced. Washout periods between substance administrations are at least 10 days. Study days include a 10-hour study session with a subsequent single measurement (short visit) the next morning (24 hours after drug administration).
Study procedures: The study takes place at the University Hospital Basel. Each of the test sessions last from 8:00 until 18:00 with a short visit the next morning (24 hours after application). An indwelling intravenous catheter is inserted into a subcutaneous vein of the forearm and baseline psychometric measures are obtained. Administration of the substance is at 9:00. Outcome measures (see below) are repeatedly assessed during the study session. Subjects are under continuous medical supervision until any alterations of consciousness have completely subsided and they leave the research facility.
Psychometric assessments: Visual Analog Scale (VAS): VASs is repeatedly used to assess subjective alterations in consciousness over time. Single scales are presented as 100 mm horizontal lines marked with “not at all” on the left and “extremely” on the right. The following VAS items are used: “any drug effect”, “good drug effect”, “bad drug effect”, “stimulated”, “liking”, “happy”, “content”, “talkative”, “open”, “trust”, “feeling close to others”, “anxiety”, “alteration of vision”, “alterations of hearing”, “sounds seem to influence what I see”, “alteration of sense of time”, “the boundaries between myself and my surroundings seem to blur”, “want to be with other people”, and “want to be alone”. Scales are administered before and repeatedly after substance administration and take approximately 2 minutes to fill out. The maximal ratings (Emax, 0-100) and areas under the effect-time curve (AUEC) are defined for each VAS and Emax and AUEC values compared between treatments using analysis of variance. 5-Dimensions of Altered States of Consciousness (5D-ASC): The 5 Dimensions of Altered States of Consciousness (5D-ASC) Scale is a questionnaire containing visual analog scales for 94 items (Studerus et al., 2010). The instrument contains five scales assessing mood, anxiety, derealization, depersonalization, changes in perception, auditory alterations, and reduced vigilance. The scale is well-validated (Studerus et al., 2010) and used internationally to evaluate effects of many other psychoactive substances. The overall psychedelic experience is reflected by the total […] score. Each item of the scale is scored on a 0-100 mm VAS. The attribution of the individual items to the subscales of the 5D-ASC is analyzed according to (Studerus et al., 2010). The 5D-ASC scale is administered once at the end of the session and subjects are instructed to retrospectively rate peak alterations that have been experienced during the study session. Adiective Mood Rating Scale (AMRS): The Adjective Mood Rating Scale (AMRS or EWL60S) is a 60-item Likert scale that allows repeated assessment of mood in 6 dimensions: Activation, inactivation, well-being, anxiety/depressed mood, extra- and introversion, and emotional excitability. The German EWL60S version is used. The AMRS consists of subscales measuring “activation,” “positive mood,” “extraversion,” “introversion,” “inactivation,” and “emotional excitability. The scale has previously been used to evaluate effects of many other psychoactive substances. Emax and AUEC scores will be defined for each subscale and compared between treatments using analysis of variance. The AMRS is administered repeatedly throughout the study session and once 3 days after each session. […]

[2] = test system: healthy subjects; experiment: Autonomic effects (blood pressure, heart rate, body temperature); format: in vivo, human
Method: as §1
Autonomic measures: Blood pressure, heart rate, and body temperature are recorded at baseline and repeatedly throughout the session. Blood pressure (systolic and diastolic) and heart rate are measured with an automatic oscillometric device. Body temperature is measured with an ear thermometer. Emax is determined for each of the measures and for each study session. These Emax values are then compared between drug conditions using analysis of variance.

[3] = mice; cited from earlier work
[4] = test system: rodents; conditions: relative to racemic MDMA; cited from earlier work

Compound | how much stimulated participants felt ([1]; 125 mg S-MDMA compared to (±)-MDMA) | how much stimulated participants felt ([1]; 125 mg S-MDMA compared to both doses of R-MDMA) | VAS Emax for “bad drug effects,” “alteration of vision” and “audio-visual synesthesia” ([1]; 125 mg S-MDMA compared with 125 mg (±)-MDMA, 24 subjects) | VAS items “alteration of vision” and “audio-visual synesthesia” ([1]; 125 mg S-MDMA compared with both R-MDMA doses and (±)-MDMA) | all VAS items except “fear” ([1]; 125 mg S-MDMA versus 250 mg R-MDMA) | VAS “any drug effects”, “good drug effects”, “I like the effect”, “stimulation”, “alteration of time” and “ego dissolution” ([1]; 125 mg S-MDMA versus 125 and 250 mg R-MDMA) | VAS “bad drug effects,” “alteration of vision” and “audio-visual synesthesia” ([1]; 125 mg S-MDMA versus (±)-MDMA and 250 mg R-MDMA) | VAS “talkative,” “open,” “trust,” and “I feel close to others” ([1]; 125 mg, compared with both R-MDMA doses and placebo) | feelings of “drug high” ([1]; S-MDMA compared with R-MDMA, abuse potential) | body temperature ([2]; 125 mg) | increases in blood pressure ([2]; 125 mg S-MDMA versus (±)-MDMA and both doses of R-MDMA) | heart rate ([2]; 125 mg S-MDMA versus the other substance conditions) | heart rate ([2]; 125 mg, versus placebo) | enantiomer converted to the other enantiomer after administration [3] | potency for locomotor stimulant effects [4] | VAS Emax for “feeling high” ([1]; 250 mg R-MDMA compared with 125 mg (±)-MDMA, 24 subjects) | VAS “drug high”, “happy”, “content”, “talkative”, “open”, “trust” and “I feel close to others” ([1]; 250 mg R-MDMA versus (±)-MDMA and S-MDMA) | body temperature ([2]; 250 mg) | heart rate ([2]; 250 mg, versus placebo)
CN[C@@H](C)Cc1ccc2c(c1)OCO2 [S-MDMA, S(+)-MDMA] | no significant difference | higher values | higher Emax values | higher increases | significant stronger effects | more than 125 and 250 mg R-MDMA | stronger | higher values | greater | increased similarly; also recorded: increased body temperature only moderately | higher increases | only significantly higher compared with 125 mg of R-MDMA | increase heart rate comparably and more than with placebo | 9.9% | mostly equipotent to racemic MDMA |  |  |  | 
CN[C@H](C)Cc1ccc2c(c1)OCO2 [R-MDMA, R(−)-MDMA] |  |  |  |  |  |  |  |  |  | did not increase body temperature significantly compared to placebo |  |  |  | 3.5% | clearly less potent than racemic MDMA | lower Emax values | lower effects | increased similarly; also recorded: increased body temperature as much as (±)-MDMA and S-MDMA; also recorded: increased body temperature only moderately | increase heart rate comparably and more than with placebo

— patent US20240307345A1, “R-MDMA and S-MDMA TO ASSIST PSYCHOTHERAPY” (Universitatsspital Basel, priority 2022, published 2024)
